Measurements from US7704995B2 (Exelixis, Inc., priority 2003, dated 2010).

Target: T1, Chk1 (Homo sapiens, UniProt O14757)
T1 construct: purchased Upstate Biotechnology
T1 sequence (O14757 1-476): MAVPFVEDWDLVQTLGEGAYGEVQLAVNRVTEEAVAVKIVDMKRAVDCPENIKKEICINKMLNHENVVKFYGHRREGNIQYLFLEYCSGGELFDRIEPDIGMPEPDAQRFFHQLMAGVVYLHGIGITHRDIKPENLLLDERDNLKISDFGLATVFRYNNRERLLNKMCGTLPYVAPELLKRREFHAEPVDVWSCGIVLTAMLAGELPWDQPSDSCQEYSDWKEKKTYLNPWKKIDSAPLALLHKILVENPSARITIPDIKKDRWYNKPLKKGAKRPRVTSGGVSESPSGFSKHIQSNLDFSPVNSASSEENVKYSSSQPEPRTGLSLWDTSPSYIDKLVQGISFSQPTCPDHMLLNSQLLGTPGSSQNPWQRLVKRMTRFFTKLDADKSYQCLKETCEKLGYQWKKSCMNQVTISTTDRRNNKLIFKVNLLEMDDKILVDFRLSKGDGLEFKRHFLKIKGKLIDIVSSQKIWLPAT
Assay: Chk1 kinase assay: incorporation of γ-33P ATP into immobilized myelin basic protein
Assay type: biochemical
Conditions: Table 11; Chk1 only; read-out: Chk1 IC50
In short: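 Radiometric filter-free format: Chk1 10 nM, 10 μM ATP; Chk2 20 nM, 30 μM ATP; γ-33P ATP tracer; immobilized MBP substrate; Hepes pH 7.6, 10 mM MgCl2, 1 mM DTT; 1 h RT; 1% DMSO. Scintillation counting of washed plates. IC50/Ki from curve fit.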

CNC(=O)c1nc(-c2cccc(CN[C@@H]3CCN(Cc4ccccc4)C3)c2)cnc1N [Example 438, 3-amino-N-methyl-6-[3-({[(3R)-1-(phenylmethyl)pyrrolidin-3-yl]amino}methyl)phenyl]pyrazine-2-carboxamide] was tested. Which IC50 did it give?
The IC50 was 50 to 1000 nM.

How did the IC50 turn out when CCN(Cc1ccccc1)Cc1cccc(-c2cnc(N)c(C(=O)NC)n2)c1 [Example 439, 3-amino-6-(3-{[ethyl(phenylmethyl)amino]methyl}phenyl)-N-methylpyrazine-2-carboxamide] was run?
Its IC50 is 50 to 1000 nM.

How did the IC50 turn out when CNC(=O)c1nc(-c2cccc(CN[C@H]3C[C@H]3c3ccccc3)c2)cnc1N [Example 440, 3-amino-N-methyl-6-[3-({[(1S,2S)-2-phenylcyclopropyl]amino}methyl)phenyl]pyrazine-2-carboxamide] was run?
The IC50 was 50 to 1000 nM.

CNC(=O)c1nc(-c2cccc(C(=O)NCc3ccccc3)c2)cnc1N [Example 441, 3-Amino-6-(3-benzylcarbamoyl-phenyl)-pyrazine-2-carboxylic acid methylamide] was tested. Which IC50 did it give?
The IC50 was 50 to 1000 nM.

Which IC50 does the source give for CNC(=O)c1nc(-c2cccc(-c3nc(-c4ccccc4)c[nH]3)c2)cnc1N [Example 442, 3-amino-N-methyl-6-[3-(4-phenyl-1H-imidazol-2-yl)phenyl]pyrazine-2-carboxamide] here?
Its IC50 is 50 to 1000 nM.

Which IC50 does the source give for CCCc1ccc(CNCc2cccc(-c3cnc(N)c(C(=O)NC)n3)c2)cc1 [Example 443, 3-amino-N-methyl-6-[3-({[(4-propylphenyl)methyl]amino}methyl)phenyl]pyrazine-2-carboxamide] here?
The IC50 was 50 to 1000 nM.

CNC(=O)c1nc(-c2cccc(CNCc3cc(Br)ccc3F)c2)cnc1N [Example 444, 3-amino-6-[3-({[(5-bromo-2-fluorophenyl)methyl]amino}methyl)phenyl]-N-methylpyrazine-2-carboxamide] was tested. Which IC50 did it give?
Its IC50 is 50 to 1000 nM.

CNC(=O)c1nc(-c2cccc(CN[C@@H]3CCc4ccccc4C3)c2)cnc1N [Example 445, 3-amino-N-methyl-6-(3-{[(2R)-1,2,3,4-tetrahydronaphthalen-2-ylamino]methyl}phenyl)pyrazine-2-carboxamide] was tested. Which IC50 did it give?
Its IC50 is < 50 nM.

With CNC(=O)c1nc(-c2cccc(CNC(C)(C)c3ccccc3)c2)cnc1N [Example 446, 3-amino-N-methyl-6-(3-{[(1-methyl-1-phenylethyl)amino]methyl}phenyl)pyrazine-2-carboxamide] as the compound, how does the IC50 read?
The IC50 was 50 to 1000 nM.

With CNC(=O)c1nc(-c2cccc(CNC3c4ccccc4-c4ccccc43)c2)cnc1N [Example 447, 3-amino-6-{3-[(9H-fluoren-9-ylamino)methyl]phenyl}-N-methylpyrazine-2-carboxamide] as the compound, how does the IC50 read?
The IC50 was 1000 to 10000 nM.

Which IC50 does the source give for CNC(=O)c1nc(-c2cccc(CNc3cccc4ccccc34)c2)cnc1N [Example 448, 3-amino-N-methyl-6-{3-[(naphthalen-1-ylamino)methyl]phenyl}pyrazine-2-carboxamide] here?
Its IC50 is 50 to 1000 nM.

For CNC(=O)c1nc(-c2cccc(CNCc3ccc(-c4ccccc4)cc3F)c2)cnc1N [Example 449, 3-amino-6-[3-({[(3-fluorobiphenyl-4-yl)methyl]amino}methyl)phenyl]-N-methylpyrazine-2-carboxamide], which IC50 is on record?
The IC50 was 50 to 1000 nM.

Which IC50 does the source give for CNC(=O)c1nc(-c2cccc(CNCc3ccc(-c4cccs4)cc3F)c2)cnc1N [Example 450, 3-amino-6-{3-[({[2-fluoro-4-(2-thienyl)phenyl]methyl}amino)methyl]phenyl}-N-methylpyrazine-2-carboxamide] here?
The IC50 was < 50 nM.

For CNC(=O)c1nc(-c2cccc(CNCc3ccc(-c4ccco4)cc3F)c2)cnc1N [Example 451, 3-amino-6-[3-({[(2-fluoro-4-furan-2-ylphenyl)methyl]amino}methyl)phenyl]-N-methylpyrazine-2-carboxamide], which IC50 is on record?
Its IC50 is < 50 nM.

With CNC(=O)c1nc(-c2cccc(CNc3ccc4ccccc4c3)c2)cnc1N [Example 452, 3-amino-N-methyl-6-{3-[(naphthalen-2-ylamino)methyl]phenyl}pyrazine-2-carboxamide] as the compound, how does the IC50 read?
Its IC50 is 50 to 1000 nM.
